Columns and labels:
[1] = tested on: 43 kinases; assay: Specificity profile against battery of 43 kinases (Millipore KinaseProfiler); assay type: biochemical, human
Experimental: (§1) A commercial radiometric assay service (Millipore, Billerica, Mass.) was used to test the specificity and potency of peptides containing a coupled transduction domain and therapeutic domain, hereinafter “complete peptides”). In these assays, if the kinase is not inhibited by an inhibitor peptide, a positively charged substrate is phosphorylated with a radiolabeled phosphate group from an ATP.
(§2) IC50 values for inhibitor peptides were determined using Millipore's IC50Profiler Express service. The IC50 value was estimated from a 10-point curve of one-half log dilutions. For peptides tested for specificity, the concentration of the peptides that inhibited approximately 95% of MK2 activity was chosen to profile against a battery of kinases related to MK2, cell viability, or human disease from MilliporeKinaseProfiler service. In both assays, compounds were supplied in dimethylsulfoxide (DMSO). Every kinase activity measurement was conducted in duplicate.
(§3) Therapeutic inhibitor peptides were assayed for activity against human kinases related to MK2, cell viability, or human disease. The assays were performed using concentrations of therapeutic inhibitor peptides that yielded 2% to 8% of normal MK2 activity. Error is reported as the standard deviation between 2 samples, and “c” is rat AMPK whereas all other kinases used are human kinases.

[2] = biological target: T1, Flt3 (Homo sapiens, UniProt P36888); assay: Millipore radiometric kinase activity assay, Flt3 (h); assay type: biochemical
T1 construct: purchased Millipore (assay service)
T1 sequence (P36888 27-993): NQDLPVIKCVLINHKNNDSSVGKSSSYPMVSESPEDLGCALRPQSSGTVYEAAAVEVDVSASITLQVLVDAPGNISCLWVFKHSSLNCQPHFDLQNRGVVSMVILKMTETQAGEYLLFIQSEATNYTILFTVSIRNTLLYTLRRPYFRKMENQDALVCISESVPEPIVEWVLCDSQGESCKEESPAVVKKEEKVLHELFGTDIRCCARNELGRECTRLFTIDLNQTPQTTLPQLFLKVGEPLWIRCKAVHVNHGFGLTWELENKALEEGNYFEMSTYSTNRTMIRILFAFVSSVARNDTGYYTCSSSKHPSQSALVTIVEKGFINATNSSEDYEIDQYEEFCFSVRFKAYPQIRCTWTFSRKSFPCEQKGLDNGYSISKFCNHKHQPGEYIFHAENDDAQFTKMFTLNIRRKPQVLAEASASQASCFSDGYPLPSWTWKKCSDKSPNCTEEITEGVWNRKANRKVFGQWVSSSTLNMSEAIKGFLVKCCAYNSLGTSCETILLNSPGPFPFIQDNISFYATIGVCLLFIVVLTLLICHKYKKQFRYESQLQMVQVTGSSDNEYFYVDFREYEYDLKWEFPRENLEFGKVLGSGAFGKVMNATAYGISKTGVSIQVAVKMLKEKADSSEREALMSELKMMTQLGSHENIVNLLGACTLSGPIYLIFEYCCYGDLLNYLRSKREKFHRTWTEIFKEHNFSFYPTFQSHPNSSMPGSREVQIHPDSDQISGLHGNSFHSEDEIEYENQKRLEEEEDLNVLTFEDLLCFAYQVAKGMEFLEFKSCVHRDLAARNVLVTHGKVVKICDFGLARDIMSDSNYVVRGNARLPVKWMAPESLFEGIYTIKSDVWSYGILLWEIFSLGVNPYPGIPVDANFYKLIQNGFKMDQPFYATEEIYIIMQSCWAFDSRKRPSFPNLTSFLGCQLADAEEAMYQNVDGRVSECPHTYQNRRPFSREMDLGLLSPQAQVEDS
Experimental: as §1
In a final reaction volume of 25 μL, Flt3 (h) (5-10 mU) is incubated with 8 mM MOPS pH 7.0, 0.2 mM EDTA, 50 μM […] [SEQ ID NO: 48], 10 mM MgAcetate and [γ-^33P-ATP] (specific activity approx. 500 cpm/pmol, concentration as required). The reaction is initiated by the addition of the MgATP mix. After incubation for 40 minutes at room temperature, the reaction is stopped by the addition of 5 μL of a 3% phosphoric acid solution. 10 μL of the reaction is then spotted onto a P30 filtermat and washed three times for 5 minutes in 75 mM phosphoric acid and once in methanol prior to drying and scintillation counting.
as §2, §3

[3] = biological target: T2, Tie2 (Homo sapiens, UniProt Q02763); assay: Millipore radiometric kinase activity assay, Tie2 (h); assay type: biochemical
T2 construct: purchased Millipore (radiometric assay service)
Experimental: as §1
In a final reaction volume of 25 μL, Tie2 (h) (5-10 mU) is incubated with 8 mM MOPS pH 7.0, 0.2 mM EDTA, 0.5 mM MnCl2, 0.1 mg/mL poly(Glu, Tyr) 4:1, 10 mM MgAcetate and [γ-^33P-ATP] (specific activity approx. 500 cpm/pmol, concentration as required). The reaction is initiated by the addition of the MgATP mix. After incubation for 40 minutes at room temperature, the reaction is stopped by the addition of 5 μL of a 3% phosphoric acid solution. 10 μL of the reaction is then spotted onto a Filtermat A and washed three times for 5 minutes in 75 mM phosphoric acid and once in methanol prior to drying and scintillation counting.
IC50 values for inhibitor peptides were determined using Millipore's IC50Profiler Express service. The IC50 value was estimated from a 10-point curve of one-half log dilutions. […]

[4] = biological target: MK2 (Homo sapiens, UniProt P49137); assay: Omnia fluorescence-based kinase activity assay for MAPKAP-K2 (reaction velocity); assay type: biochemical; set-up: purchased Invitrogen; conditions: 100 μM peptide; percentage change in MK2 reaction velocity versus unsubstituted KALNRQLGVAA at 100 μM; SD of three samples
Experimental: The Omnia® Kinase Assay for MAPKAP-K2 kit (Invitrogen, Carlsbad, Calif.), was used to determine the reaction velocity for MK2 in the presence and absence of each of the peptides listed in Table 1. The kit contains a proprietary reaction buffer to which the following were added (final concentrations are given): 1 mM ATP, 0.2 mM DTT, 10 μM MAPKAP-K2 Sox-modified peptide substrate, 5 ng MK2, and the inhibitor peptide of interest (final volume of 50 μL). Human MK2 was purchased from Invitrogen. The reactions were performed at 30° C. in the wells of a low-protein-binding 96-well plate provided with the kit, and fluorescence readings (excitation=360 nm, emission=485 nm) were taken every 30 seconds for 20 minutes using a SpectraMax M5 Spectrophotometer (Molecular Devices). Reaction velocity was determined for each reaction well from the slope of a plot of relative fluorescence units versus time. Each inhibitor peptide was tested at least at four concentrations, 12.5, 25, 50 and […], in triplicate.
In Table 1, “a” represents that the results shown are for 100 μM for all peptides; “b” represents the percentage change in MK2 reaction velocity versus the unsubstituted peptide ([…]) [SEQ ID NO: 13] at a concentration of 100 μM; “c” represents the error reported as the standard deviation between three samples.

[5] = tested on: IL-6 expression in triple culture of neurons, astrocytes and microglia; conditions: 1 mM or 3 mM MK2i with TNF-α 5 or 10 ng/ml
Experimental: The inhibitory effect of therapeutic inhibitor protein having amino acid sequence [sequence] [SEQ ID NO: 11] on IL-6 production was studied in a triple culture consisting of neurons, astrocytes and microglia. […] The E18 cells were plated (1×10^6 cells/ml) to support differentiation into neurons, astrocytes and microglia. […] The positive control comprised treating the cells with TNF-α (either 5 ng/ml or 10 ng/ml); as a negative control, the cells were exposed to cell media without any treatment. […] Cytokines with or without therapeutic inhibitor peptide were always added simultaneously in this media formulation.

[6] = tested on: IL-1β induced IL-6 expression in mesothelial cells (CRL-9444); assay: IL-6 ELISA, mesothelial cells induced with IL-1β; assay type: cell-based; conditions: IL-1β 1 ng/ml
Experimental: A cell line of pleural mesothelial cells (CRL-9444) was purchased from American Type Culture Collection. Cells were maintained and seeded in Medium 199 with Earle's BSS and 0.75 mM L-glutamine (Mediatech, Inc., Manassas, Va.), 1.25 g/L sodium bicarbonate (Sigma, St. Louis, Mo.), 3.3 nM epidermal growth factor (MBL International, Woburn, Mass.), 40 nM hydrocortisone (Sigma), 870 nM insulin (MBL International), 20 mM HEPES (Sigma), trace elements mixture B (Mediatech, Inc.), 10% fetal bovine serum (FBS) (Hyclone, Waltham, Mass.) and 1% penicillin/streptomycin (Mediatech, Inc.). Prior to treating cells with therapeutic inhibitor peptides, cells were allowed to acclimate in serum-free media consisting of only Medium 199 with Earle's BSS. L-glutamine, sodium bicarbonate, HEPES, trace elements mixture B, and penicillin/streptomycin (concentrations and suppliers as above) for 24 hours prior to treatment with cytokines and/or inhibitor peptides. […] For all cell culture experiments, the cell-penetrating MK2 inhibitor peptide sequence [sequence] [SEQ ID NO: 11] was used.
IL-6 analysis was performed with a IL-6 ELISA kit (PeproTech, Inc., Rocky Hill, N.J.). Briefly, the plate was prepared as follows. The capture antibody (antigen-affinity purified goat anti-hIL-6+2.5 mg D-mannitol) was diluted with phosphate buffered saline (PBS) to a concentration of 1 μg/ml and added to the each well of the plate. The plate was sealed and incubated at room temperature overnight. The wells then were aspirated to remove liquid, and washed 4 times using wash buffer (300 μl per well of 0.05% Tween-20 in PBS). After the last wash, the plate was inverted to remove residual buffer, and blotted on a paper towel. Block buffer (300 μl per well of 1% BSA in PBS) was added, the plate incubated for at least 1 hour at room temperature, aspirated and washed 4 times.
Standards (from 2 ng/ml to zero) and samples were prepared in diluent, immediately added to each well in triplicate, and incubated at room temperature for at least 2 hours on a plate shaker adjusted to 300 rpm. […] Following the incubation, the plate was aspirated, washed 4 times, avidin-horse radish peroxidase (HRP) conjugate added ((5.5 μl:10994.5 μl diluent) (100 μl) to each well, incubated for 30 minutes at room temperature on a plate shaker adjusted to 300 rpm, aspirated, and washed 4 times. To each well then was added ABTS Liquid Substrate Solution (Sigma) (100 μl). The plate was incubated at room temperature for color development on a plate shaker adjusted to 300 rpm. Absorbance was measured at 405 nm and 650 nm (650 nm was the wavelength correction subtracted from each 405 nm measurement) using a Spectramax M5 Microplate Reader (Molecular Devices) every 5 minutes for 50 minutes. Hoeschst 33342 nuclear stain (Invitrogen) was used to quantify cell number on the basis of DNA quantity. All results were run in triplicate and normalized to cell number.
One-way ANOVA analyses were used to determine statistically significant increases or decreases in parameters of interest. Significant differences were analyzed with Tukey HSD post hoc comparisons. A significance level of α=0.05 was used in cytokine analyses.
Mesothelial cells were incubated with IL-1β (1 ng/ml) (to induce IL-6 expression) and/or different concentrations of therapeutic inhibitor peptide. The commercially available protein kinase inhibitor Rottlerin was introduced as an inhibitor of both MK2 and PRAK.

T2 sequence (Q02763 23-1124): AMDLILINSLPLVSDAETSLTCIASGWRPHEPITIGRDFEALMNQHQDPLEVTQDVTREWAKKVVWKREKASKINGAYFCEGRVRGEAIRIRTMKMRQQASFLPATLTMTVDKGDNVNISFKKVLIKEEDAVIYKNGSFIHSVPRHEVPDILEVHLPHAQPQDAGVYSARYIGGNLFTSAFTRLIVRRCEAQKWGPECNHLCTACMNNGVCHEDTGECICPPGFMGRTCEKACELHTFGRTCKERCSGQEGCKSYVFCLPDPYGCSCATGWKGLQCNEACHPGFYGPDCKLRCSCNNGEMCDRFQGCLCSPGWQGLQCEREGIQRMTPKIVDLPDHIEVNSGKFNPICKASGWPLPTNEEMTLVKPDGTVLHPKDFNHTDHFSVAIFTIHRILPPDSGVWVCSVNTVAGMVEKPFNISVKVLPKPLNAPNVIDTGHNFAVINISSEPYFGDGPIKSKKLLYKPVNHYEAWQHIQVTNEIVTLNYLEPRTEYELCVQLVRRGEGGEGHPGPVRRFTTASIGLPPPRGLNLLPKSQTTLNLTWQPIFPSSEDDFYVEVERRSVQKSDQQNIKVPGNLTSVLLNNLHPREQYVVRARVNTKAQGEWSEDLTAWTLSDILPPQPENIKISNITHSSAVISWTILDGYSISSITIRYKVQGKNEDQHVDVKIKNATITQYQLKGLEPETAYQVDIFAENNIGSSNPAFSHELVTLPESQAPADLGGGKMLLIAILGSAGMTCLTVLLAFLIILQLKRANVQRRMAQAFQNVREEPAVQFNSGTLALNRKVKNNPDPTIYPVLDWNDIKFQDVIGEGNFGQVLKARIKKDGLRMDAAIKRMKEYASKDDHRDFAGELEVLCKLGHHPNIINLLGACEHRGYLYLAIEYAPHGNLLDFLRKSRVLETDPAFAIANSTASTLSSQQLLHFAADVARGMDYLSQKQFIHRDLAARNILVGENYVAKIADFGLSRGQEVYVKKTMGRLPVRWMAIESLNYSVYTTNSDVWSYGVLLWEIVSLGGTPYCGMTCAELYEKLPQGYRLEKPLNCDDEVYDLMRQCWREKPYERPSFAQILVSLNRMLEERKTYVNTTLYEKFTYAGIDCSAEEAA
MK2, sequence (P49137 whole entry): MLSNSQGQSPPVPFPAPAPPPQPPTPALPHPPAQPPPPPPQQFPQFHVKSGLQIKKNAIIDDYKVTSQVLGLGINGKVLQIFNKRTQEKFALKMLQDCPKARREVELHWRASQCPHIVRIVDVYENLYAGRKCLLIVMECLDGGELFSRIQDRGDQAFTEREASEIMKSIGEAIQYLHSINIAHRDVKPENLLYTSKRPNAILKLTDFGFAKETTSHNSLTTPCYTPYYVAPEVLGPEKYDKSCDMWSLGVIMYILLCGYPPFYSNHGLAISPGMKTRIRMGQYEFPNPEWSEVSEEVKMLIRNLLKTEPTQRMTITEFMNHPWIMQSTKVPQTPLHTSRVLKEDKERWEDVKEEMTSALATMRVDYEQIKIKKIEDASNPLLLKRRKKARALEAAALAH

With FAKLAARLYRKALARQLGVAA the “Percentage of the 43 kinases Tested with less than 20% Activity” value ([1]; Concentration Tested 100 μM) was 37%.
KAFAKLAARLYRKALARQLGVAA was tested, and the “Flt3 Kinase Activity (%) (+SD %)” value ([2]; peptide 100 μM) was 20 (3) %.
For WLRRIKAWLRRIKALNRQLGVAA, the “Percentage of the 43 kinases Tested with less than 20% Activity” value ([1]; Concentration Tested 30 μM) was 47%, the “Flt3 Kinase Activity (%) (+SD %)” value ([2]; peptide 30 μM) was 38 (1) % and the “Flt3 Kinase Activity (%) (+SD %)” value ([2]; peptide 100 μM) was 14 (0) %. The “Tie2 Kinase Activity (%) (+SD %)” value ([3]; peptide 30 μM) was 17 (1) %, the “Tie2 Kinase Activity (%) (+SD %)” value ([3]; peptide 100 μM) was 0 (0) % and the “percent change in MK2 reaction velocity versus unsubstituted peptide” value [4] was −132(10) %.
For YARAAARQARAKALARQLGVAA, the “level of expression of IL-6 (FIG. 11)” value [5] was “reduced levels of expression of IL-6”, the “IL-1β induced IL-6 expression (FIG. 7)” value ([6]; different concentrations of peptide) was “inhibited” and the “time at which significant reduction of IL-1β induced IL-6 expression occurs” value ([6]; peptide 3 mM) was 6 h. For the same sequence, the “IL-1β induced IL-6 expression (FIG. 7)” value ([6]; peptide 3 mM (highest concentration)) was “significantly reduced”.
